Reference: US20210155644A1, “CYCLOPENTENYL PURINE DERIVATIVE OR SALT THEREOF” (Fujifilm Corporation, priority 2018, published 2021)

Each molecule was assayed on adenovirus type 6 (ADV6) (assay: Evaluation of anti-adenovirus activity: CRL-11516 cells infected with ADV6, anti-hexon staining, count of stained cells). Settings: CRL-11516 cells infected with ADV6, 48 hours culture, concentration reducing dark brown-stained cells by 50%; read-out: Anti-AdV activity EC50.
Type: cell-based
Experimental: A system in which CRL-11516 cells (available from ATCC) were infected with adenovirus type 6 (hereinafter, referred to as ADV6) was constructed, and a test for evaluating the anti-adenovirus activity of the compound according to the embodiment of the present invention and the compound of Comparative Example was carried out using the system. The test for evaluating the anti-adenovirus activity was carried out according to the method described below.
CRL-11516 cells were added to a 96-well plate at a cell density of 1×10^4 cells/well and cultured at 37° C. for 24 hours. After the culture was completed, the cell culture liquid was removed, and a serial dilution (100 μL) of the compound according to the embodiment of the present invention or the compound of Comparative Example was added. ADV6 (corresponding to 50TCID50) was added thereto, followed by culturing at 37° C. for 48 hours.
After the culture was completed, the infected cells were stained using Adeno-X Rapid Titer Kit (manufactured by Takara Bio Inc.). 100% methanol was added thereto and the cells were fixed at −20° C. for 10 minutes. The plate was washed three times with phosphate buffered saline (hereinafter, referred to as PBS) and then Mouse Anti-Hexon Antibody was added thereto, followed by incubation at 37° C. for 1 hour. After the incubation was completed, the plate was washed three times with PBS, and Rat Anti-Mouse Antibody was added thereto, followed by incubation at 37° C. for 1 hour. After the incubation was completed, a mixed staining solution of Stable Peroxidase Buffer:DAB Substrate=10:1 was added thereto, followed by incubation at room temperature for 10 minutes for staining of the cells.
The number of dark brown-stained cells was counted under a microscope, and the concentration of the test drug that reduces the dark brown-stained cells by 50% was defined as EC50. EC50 values were calculated for the triplicate test results, and a mean value and a standard deviation thereof were determined.

Molecule	EC50 [nM]
COc1nc(N)nc2c1ncn2[C@H]1C=C[C@@H](COP(=O)(N[C@@H](C)C(=O)OC(C)C)Oc2ccccc2)C1 (stereo partly drawn) [Example 4-4-2, Isopropyl ((((1 S,4R)-4-(2-amino-6-methoxy-9H-purin-9-yl)cyclopent-2-en-1-yl)methoxy)(phenoxy)phosphoryl)-L-alaninate]	100 to 1000
COC(=O)[C@H](C)NP(=O)(OCCSC(=O)C(C)(C)C)OC[C@@H]1C=C[C@H](n2cnc3c(OC)nc(N)nc32)C1 (stereo partly drawn) [Example 4-6-2, ((((1S,4R)-4-(2-amino-6-methoxy-9H-purin-9-yl)cyclopent-2-en-1-yl)methoxy)(2-(pivaloylthio)ethoxy)phosphoryl)-L-alaninate]	< 10
COC(=O)[C@H](C)NP(=O)(OC[C@@H]1C=C[C@H](n2cnc3c(OC)nc(N)nc32)C1)Oc1ccccc1 (stereo partly drawn) [Example 2-2-16, Methyl ((((1S,4R)-4-(2-amino-6-methoxy-9H-purin-9-yl)cyclopent-2-en-1-yl)methoxy) (phenoxy)phosphoryl)-L-alaninate]	10 to 100
Isopropyl ((((1S,4R)-4-(2-amino-6-methoxy- 9H-purin-9-yl)cyclopent-2-en-1- yl)methoxy)(naphthalen-1-yloxy) phosphoryl)-L-alaninate [Example 6-2-26]	10 to 100
CNc1nc(N)nc2c1ncn2[C@H]1C=C[C@@H](CO[P@](=O)(N[C@@H](C)C(=O)OC(C)C)Oc2ccccc2)C1 [Example 2-2-29]	10 to 100
CC(C)OC(=O)[C@H](C)NP(=O)(OC[C@@H]1C=C[C@H](n2cnc3c(Cl)nc(N)nc32)C1)Oc1ccccc1 (stereo partly drawn) [Example 4-3-1, Isopropyl ((((1 S,4R)-4-(2-amino-6-chloro-9H-purin-9-yl)cyclopent-2-en-1-yl)methoxy)(phenoxy)phosphoryl)-L-alaninate]	10 to 100
COc1nc(N)nc2c1ncn2[C@H]1C=C[C@@H](COP(=O)(N[C@@H](C)C(=O)OC(C)C)Oc2ccc(Cl)cc2)C1 (single isomer, unassigned) [Example 4-8-2]	< 10
COC(=O)[C@H](C)NP(=O)(OC[C@@H]1C=C[C@H](n2cnc3c(OC)nc(N)nc32)C1)Oc1ccccc1 (stereo partly drawn) [Example 4-2-2, methyl ((((1 S,4R)-4-(2-amino-6-methoxy-9H-purin-9-yl)cyclopent-2-en-1-yl)methoxy)(phenoxy)phosphoryl)-L-alaninate]	10 to 100

Same assay, conditions: Human mastadenovirus C, 48 h, CRL-11516 cells infected with ADV6, 48 hours culture, concentration reducing dark brown-stained cells by 50%; read-out: Anti-AdV activity EC50

Molecule	EC50 [nM]
COC(=O)C(C)(C)NP(=O)(OC[C@@H]1C=C[C@H](n2cnc3c(OC)nc(N)nc32)C1)Oc1ccc(Br)cc1 (stereo partly drawn) [Example 1-2-49, Methyl 2-(((((1S,4R)-4-(2-amino-6-methoxy-9H-purin-9-yl)cyclopent-2-en-1-yl)methoxy)(4-bromophenoxy)phosphoryl)amino)-2-methylpropanoate]	< 10
CC(C)OC(=O)[C@H](C)N[P@@](=O)(OC[C@@H]1C=C[C@H](n2cnc3c(OC4CCC4)nc(N)nc32)C1)Oc1ccccc1 [Example 2-2-35, isopropyl ((R)-(((1S,4R)-4-(2-amino-6-cyclobutoxy-9H-purin-9-yl)cyclopent-2-en-1-yl)methoxy)(phenoxy)phosphoryl)-L-alaninate]	10 to 100
CCOc1nc(N)nc2c1ncn2[C@H]1C=C[C@@H](CO[P@](=O)(N[C@@H](C)C(=O)OC(C)C)Oc2ccccc2)C1 [Example 2-2-17, isopropyl ((R)-(((1S,4R)-4-(2-amino-6-ethoxy-9H-purin-9-yl)cyclopent-2-en-1-yl)methoxy)(phenoxy)phosphoryl)-L-alaninate]	< 10
CC(C)OC(=O)[C@H](C)NP(=O)(OC[C@@H]1C=C[C@H](n2cnc3c(Cl)nc(N)nc32)C1)Oc1ccc(Cl)cc1 (stereo partly drawn) [Example 1-2-70, isopropyl ((((1S,4R)-4-(2-amino-6-chloro-9H-purin-9-yl)cyclopent-2-en-1-yl)methoxy)(4-chlorophenoxy)phosphoryl)-L-alaninate]	10 to 100
COC(=O)[C@H](C)NP(=O)(OC[C@@H]1C=C[C@H](n2cnc3c(Cl)nc(N)nc32)C1)Oc1ccc(Cl)cc1 (stereo partly drawn) [Example 4-5-1, methyl ((((1 S,4R)-4-(2-amino-6-chloro-9H-purin-9-yl)cyclopent-2-en-1-yl)methoxy)(4-chlorophenoxy)phosphoryl)-L-alaninate]	< 10
CC(C)OC(=O)[C@H](C)N[P@](=O)(OC[C@@H]1C=C[C@H](n2cnc3c(OC4CCC4)nc(N)nc32)C1)Oc1ccccc1 [Example 2-2-36, Isopropyl ((S)-(((1S,4R)-4-(2-amino-6-cyclobutoxy-9H-purin-9-yl)cyclopent-2-en-1-yl)methoxy)(phenoxy)phosphoryl)-L-alaninate]	100 to 1000
CC(C)OC(=O)[C@H](C)N[P@@](=O)(OC[C@@H]1C=C[C@H](n2cnc3c(OC(C)C)nc(N)nc32)C1)Oc1ccccc1 [Example 2-2-19, isopropyl ((R)-(((1S,4R)-4-(2-amino-6-isopropoxy-9H-purin-9-yl)cyclopent-2-en-1-yl)methoxy)(phenoxy)phosphoryl)-L-alaninate]	10 to 100
CCOC(=O)[C@H](C)NP(=O)(OC[C@@H]1C=C[C@H](n2cnc3c(OC)nc(N)nc32)C1)Oc1ccccc1 (stereo partly drawn) [Example 1-2-34, ethyl ((((1S,4R)-4-(2-amino-6-methoxy-9H-purin-9-yl)cyclopent-2-en-1-yl)methoxy)(phenoxy)phosphoryl)-L-alaninate]	10 to 100
COC(=O)[C@H](C)NP(=O)(OC[C@@H]1C=C[C@H](n2cnc3c(OC)nc(N)nc32)C1)Oc1ccc(Br)cc1 (stereo partly drawn) [Example 1-2-3, methyl ((((1S,4R)-4-(2-amino-6-methoxy-9H-purin-9-yl)cyclopent-2-en-1-yl)methoxy)(4-bromophenoxy)phosphoryl)-L-alaninate]	< 10
COC(=O)[C@H](C)NP(=O)(OC[C@@H]1C=C[C@H](n2cnc3c(Cl)nc(N)nc32)C1)Oc1ccccc1 (stereo partly drawn) [Example 2-2-7, Methyl ((((1S,4R)-4-(2-amino-6-chloro-9H-purin-9-yl)cyclopent-2-en-1-yl)methoxy) (phenoxy)phosphoryl)-L-alaninate]	10 to 100
COC(=O)[C@H](C)NP(=O)(OC[C@@H]1C=C[C@H](n2cnc3c(OC)nc(N)nc32)C1)Oc1ccc(Cl)cc1 (stereo partly drawn) [Example 1-2-2, methyl ((((1S,4R)-4-(2-amino-6-methoxy-9H-purin-9-yl)cyclopent-2-en-1-yl)methoxy)(4-chlorophenoxy)phosphoryl)-L-alaninate]	< 10
COC(=O)[C@H](C)NP(=O)(OC[C@@H]1C=C[C@H](n2cnc3c(N(C)C)nc(N)nc32)C1)Oc1ccc(Br)cc1 (stereo partly drawn) [Example 1-2-45, Methyl ((((1S,4R)-4-(2-amino-6-(dimethylamino)-9H-purin-9-yl)cyclopent-2-en-1-yl)methoxy)(4-bromophenoxy)phosphoryl)-L-alaninate]	< 10
CCOc1nc(N)nc2c1ncn2[C@H]1C=C[C@@H](CO[P@@](=O)(N[C@@H](C)C(=O)OC(C)C)Oc2ccccc2)C1 [Example 2-2-18, Isopropyl ((S)-(((1S,4R)-4-(2-amino-6-ethoxy-9H-purin-9-yl)cyclopent-2-en-1-yl)methoxy) (phenoxy)phosphoryl)-L-alaninate]	100 to 1000
COC(=O)[C@H](C)NP(=O)(OC[C@@H]1C=C[C@H](n2cnc3c(N)nc(N)nc32)C1)Oc1ccc(Br)cc1 (stereo partly drawn) [Example 1-2-6, Methyl ((4-bromophenoxy)(((1S,4R)-4-(2,6-diamino-9H-purin-9-yl)cyclopent-2-en-1-yl)methoxy)phosphoryl)-L-alaninate]	100 to 1000

Same assay, conditions: Human mastadenovirus C; CRL-11516 cells infected with ADV6, 48 hours culture, concentration reducing dark brown-stained cells by 50%; read-out: Anti-AdV activity EC50

EC50 [nM]	Molecule
100 to 1000	COC(=O)[C@H](C)NP(=O)(OCCSC(=O)C(C)(C)CO)OC[C@@H]1C=C[C@H](n2cnc3c(Cl)nc(N)nc32)C1 (stereo partly drawn) [Example 5-1, methyl ((((1 S,4R)-4-(2-amino-6-chloro-9H-purin-9-yl)cyclopent-2-en-1-yl)methoxy)(2-((3-hydroxy-2,2-dimethylpropanoyl)thio)ethoxy)phosphoryl)-L-alaninate]
< 10	CC(C)OC(=O)[C@H](C)NP(=O)(OCCSC(=O)C(C)(C)C)OC[C@@H]1C=C[C@H](n2cnc3c(Cl)nc(N)nc32)C1 (stereo partly drawn) [Example 1-2-73, isopropyl ((((1S,4R)-4-(2-amino-6-chloro-9H-purin-9-yl)cyclopent-2-en-1-yl)methoxy)(2-(pivaloylthio)ethoxy)phosphoryl)-L-alaninate]

Same assay, conditions: read-out: Anti-AdV activity EC50; CRL-11516 cells infected with ADV6, 48 hours culture, concentration reducing dark brown-stained cells by 50%

Molecule	EC50 [nM]
COc1nc(N)nc2c1ncn2[C@H]1C=C[C@@H](COP(=O)(OCCSC(=O)C(C)(C)C)Oc2ccccc2)C1 (stereo partly drawn) [Example 2-1, S-(2-(((((1S,4R)-4-(2-amino-6-methoxy-9H-purin-9-yl)cyclopent-2-en-1-yl)methoxy)(phenoxy)phosphoryl)oxy)ethyl) 2,2-dimethylpropanethioate]	< 10
